Test results: US11739098B2 (BRISTOL-MYERS SQUIBB COMPANY, priority 2017, dated 2023)

How the values were obtained:
Assay type in all cases: cell-based
human TLR7 = target: T1, human TLR7 (Homo sapiens, UniProt Q9NYK1); assay: TLR7 inhibition reporter assay (HEK-Blue cells, SEAP reporter, gardiquimod stimulation); conditions: HEK-Blue cells overexpressing human TLR7, SEAP reporter, gardiquimod 7.5 μM
T1 construct: host or cells: HEK-Blue cells (HEK293-derived reporter line)
T1 sequence (Q9NYK1 27-1049): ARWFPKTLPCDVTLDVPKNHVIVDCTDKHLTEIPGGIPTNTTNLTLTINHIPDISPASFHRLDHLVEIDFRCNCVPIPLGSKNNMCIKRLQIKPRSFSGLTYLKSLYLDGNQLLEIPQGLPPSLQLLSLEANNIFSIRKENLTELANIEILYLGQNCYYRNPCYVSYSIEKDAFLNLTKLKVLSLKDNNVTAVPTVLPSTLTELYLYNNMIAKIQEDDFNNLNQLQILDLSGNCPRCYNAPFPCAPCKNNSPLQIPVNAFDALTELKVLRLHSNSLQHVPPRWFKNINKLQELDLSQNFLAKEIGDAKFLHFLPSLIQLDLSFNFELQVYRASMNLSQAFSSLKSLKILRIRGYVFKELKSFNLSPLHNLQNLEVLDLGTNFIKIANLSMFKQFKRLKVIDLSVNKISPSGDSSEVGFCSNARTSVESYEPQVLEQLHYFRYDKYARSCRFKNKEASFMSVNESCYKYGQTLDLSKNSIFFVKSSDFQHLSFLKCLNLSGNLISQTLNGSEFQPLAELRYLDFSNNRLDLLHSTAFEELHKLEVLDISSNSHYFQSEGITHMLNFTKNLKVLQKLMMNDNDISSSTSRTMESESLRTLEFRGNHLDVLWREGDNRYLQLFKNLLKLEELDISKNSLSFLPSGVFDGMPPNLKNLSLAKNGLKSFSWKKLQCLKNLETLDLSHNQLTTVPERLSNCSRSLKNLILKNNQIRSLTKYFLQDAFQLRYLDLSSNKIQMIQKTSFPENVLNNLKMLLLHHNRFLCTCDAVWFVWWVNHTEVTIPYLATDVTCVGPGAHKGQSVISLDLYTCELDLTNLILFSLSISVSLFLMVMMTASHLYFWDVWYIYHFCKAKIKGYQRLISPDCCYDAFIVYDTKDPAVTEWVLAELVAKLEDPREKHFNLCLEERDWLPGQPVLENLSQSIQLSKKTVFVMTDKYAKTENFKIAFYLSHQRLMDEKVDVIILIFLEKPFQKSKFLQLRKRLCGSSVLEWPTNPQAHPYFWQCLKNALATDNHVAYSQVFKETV
Method in brief: (§1)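 Read-out is SEAP activity in HEK-Blue detection medium after 22 h at 37 °C, converted to percent inhibition against agonist-plus-DMSO and reference-inhibitor controls. Cells saw compound (0.05 nM–50 μM, 30 min, room temperature) before gardiquimod 7.5 μM, R848 15.9 μM or ODN2006 5 nM for TLR7, TLR8 and TLR9, respectively.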

human TLR8 = target: T2, human TLR8 (Homo sapiens, UniProt Q9NR97); assay: TLR8 inhibition reporter assay (HEK-Blue cells, SEAP reporter, R848 stimulation); conditions: HEK-Blue cells overexpressing human TLR8, SEAP reporter, R848 15.9 μM
T2 construct: host or cells: HEK-Blue cells (HEK293-derived reporter line)
T2 sequence (Q9NR97 27-1041): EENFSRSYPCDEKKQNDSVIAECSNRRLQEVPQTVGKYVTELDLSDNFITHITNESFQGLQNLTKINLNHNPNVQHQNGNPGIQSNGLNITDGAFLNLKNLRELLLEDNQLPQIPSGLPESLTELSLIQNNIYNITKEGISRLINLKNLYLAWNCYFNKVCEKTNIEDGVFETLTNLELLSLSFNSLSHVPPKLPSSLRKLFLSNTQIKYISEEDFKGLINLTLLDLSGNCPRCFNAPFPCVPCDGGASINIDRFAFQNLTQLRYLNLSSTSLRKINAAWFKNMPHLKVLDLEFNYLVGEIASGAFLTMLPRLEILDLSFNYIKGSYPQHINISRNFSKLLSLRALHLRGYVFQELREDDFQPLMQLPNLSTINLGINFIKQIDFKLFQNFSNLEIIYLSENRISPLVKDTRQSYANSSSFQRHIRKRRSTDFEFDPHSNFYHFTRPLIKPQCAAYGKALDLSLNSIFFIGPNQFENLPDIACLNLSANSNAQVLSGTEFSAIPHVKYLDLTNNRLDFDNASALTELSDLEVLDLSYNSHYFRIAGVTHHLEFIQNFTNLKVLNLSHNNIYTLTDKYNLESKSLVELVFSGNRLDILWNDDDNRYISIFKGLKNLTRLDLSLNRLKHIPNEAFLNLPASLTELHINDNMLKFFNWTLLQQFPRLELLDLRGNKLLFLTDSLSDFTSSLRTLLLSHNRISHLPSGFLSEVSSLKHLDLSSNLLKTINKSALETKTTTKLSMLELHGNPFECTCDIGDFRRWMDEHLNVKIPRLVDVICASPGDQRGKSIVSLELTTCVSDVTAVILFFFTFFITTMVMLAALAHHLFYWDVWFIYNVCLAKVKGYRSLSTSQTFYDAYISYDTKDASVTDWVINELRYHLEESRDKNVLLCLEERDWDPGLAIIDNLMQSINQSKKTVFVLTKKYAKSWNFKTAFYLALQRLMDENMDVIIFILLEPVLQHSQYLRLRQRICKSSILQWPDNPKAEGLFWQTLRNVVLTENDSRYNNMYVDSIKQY
Method in brief: as §1

human TLR9 = target: T3, human TLR9 (Homo sapiens, UniProt Q9NR96); assay: TLR9 inhibition reporter assay (HEK-Blue cells, SEAP reporter, ODN2006 stimulation); conditions: HEK-Blue cells overexpressing human TLR9, SEAP reporter, ODN2006 5 nM
T3 construct: host or cells: HEK-Blue cells (HEK293-derived reporter line)
T3 sequence (Q9NR96 26-1032): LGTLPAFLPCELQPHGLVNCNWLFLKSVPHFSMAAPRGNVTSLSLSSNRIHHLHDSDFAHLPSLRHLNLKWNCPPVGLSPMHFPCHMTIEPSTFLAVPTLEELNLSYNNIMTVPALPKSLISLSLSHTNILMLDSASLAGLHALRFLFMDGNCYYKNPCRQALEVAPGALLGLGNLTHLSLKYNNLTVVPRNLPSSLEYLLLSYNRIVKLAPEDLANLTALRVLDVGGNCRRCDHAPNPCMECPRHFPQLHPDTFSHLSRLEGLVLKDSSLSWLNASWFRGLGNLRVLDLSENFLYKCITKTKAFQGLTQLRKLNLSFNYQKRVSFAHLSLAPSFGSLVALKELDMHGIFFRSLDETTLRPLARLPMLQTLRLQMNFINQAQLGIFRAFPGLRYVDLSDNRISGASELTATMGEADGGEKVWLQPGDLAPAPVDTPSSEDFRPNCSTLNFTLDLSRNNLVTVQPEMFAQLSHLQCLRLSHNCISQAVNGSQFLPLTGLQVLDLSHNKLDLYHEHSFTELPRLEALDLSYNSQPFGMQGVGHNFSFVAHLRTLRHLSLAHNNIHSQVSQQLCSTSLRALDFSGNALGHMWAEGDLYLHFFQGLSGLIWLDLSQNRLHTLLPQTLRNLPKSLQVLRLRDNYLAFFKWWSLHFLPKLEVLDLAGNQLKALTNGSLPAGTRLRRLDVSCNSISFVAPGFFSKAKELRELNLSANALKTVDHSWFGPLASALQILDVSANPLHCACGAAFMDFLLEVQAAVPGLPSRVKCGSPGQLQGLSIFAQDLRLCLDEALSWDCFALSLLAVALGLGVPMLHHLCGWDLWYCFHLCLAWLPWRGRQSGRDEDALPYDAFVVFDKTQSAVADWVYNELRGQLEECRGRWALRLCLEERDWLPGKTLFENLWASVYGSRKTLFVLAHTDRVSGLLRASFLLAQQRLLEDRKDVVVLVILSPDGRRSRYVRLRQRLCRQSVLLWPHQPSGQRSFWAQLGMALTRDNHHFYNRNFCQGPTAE
Method in brief: as §1

Compound	IC50 (human TLR7) [nM]	IC50 (human TLR8) [nM]	IC50 (human TLR9) [nM]
CC(C)c1c(-c2ccc3scnc3c2)[nH]c2ccc(C3CCNCC3)cc12 [Example 12, 5-(3-isopropyl-5-(piperidin-4-yl)-1H-indol-2-yl)benzo[d]thiazole]	100 to 1000	1000 to 50000	100 to 1000
CCc1c(-c2cnc3[nH]ncc3c2)[nH]c2ccc(C3CCNCC3)cc12 [Example 53, 5-(3-ethyl-5-(piperidin-4-yl)-1H-indol-2-yl)-1H-pyrazolo[3,4-b]pyridine]	100 to 1000	< 100	1000 to 50000
Cc1ccc(-c2[nH]c3ccc(C4CCNCC4)cc3c2C(C)C)c2ncnn12 [Example 152, 8-(3-isopropyl-5-(piperidin-4-yl)-1H-indol-2-yl)-5-methyl-[1,2,4]triazolo[1,5-a]pyridine]	< 100	< 100	1000 to 50000
CC(C)c1c(-c2ccc3[nH]c(=O)oc3c2)[nH]c2ccc(C3CCNCC3)cc12 [Example 10, 6-(3-isopropyl-5-(piperidin-4-yl)-1H-indol-2-yl)benzo[d]oxazol-2(3H)-one]	< 100	< 100	100 to 1000
CC(C)c1c(-c2cnc3cnccn23)[nH]c2ccc(C3CCN(CC(=O)N(C)C)CC3)cc12 [Example 426, 2-(4-(2-(imidazo[1,2-a]pyrazin-3-yl)-3-isopropyl-1H-indol-5-yl)piperidin-1-yl)-N,N-dimethylacetamide]	> 3130	1000 to 50000	1000 to 50000
CC(C)c1c(-c2cn3ccnc3cc2Cl)[nH]c2ccc(C3CCNCC3)cc12 [Example 128, 7-chloro-6-(3-isopropyl-5-(piperidin-4-yl)-1H-indol-2-yl)imidazo[1,2-a]pyridine]	< 100	< 100	1000 to 50000
CNCCN1CCC(c2ccc3[nH]c(-c4ccc5c(c4)OCO5)c(C)c3c2)CC1 [Example 670, 2-(4-(2-(benzo[d][1,3]dioxol-5-yl)-3-methyl-1H-indol-5-yl)piperidin-1-yl)-N-methylethan-1-amine]	100 to 1000	100 to 1000	1000 to 50000
CNC(=O)CN1CCC(c2ccc3[nH]c(-c4cc(C)c5ncsc5n4)c(C(C)C)c3c2)CC1 [Example 406, 2-(4-(3-isopropyl-2-(7-methylthiazolo[5,4-b]pyridin-5-yl)-1H-indol-5-yl)piperidin-1-yl)-N-methylacetamide]	< 100	< 100	1000 to 50000
CC(=O)N1CCCN(CC(=O)N2CCC(c3ccc4[nH]c(-c5ccnc6[nH]ncc56)c(C(C)C)c4c3)CC2)CC1 [Example 586, 2-(4-acetyl-1,4-diazepan-1-yl)-1-(4-(3-isopropyl-2-(1H-pyrazolo[3,4-b]pyridin-4-yl)-1H-indol-5-yl)piperidin-1-yl)ethan-1-one]	< 100	< 100	1000 to 50000

Other lines, results leading:

IC50 (human TLR7) [nM]	IC50 (human TLR8) [nM]	IC50 (human TLR9) [nM]	Compound
< 100	< 100	1000 to 50000	CCc1c(-c2c[nH]c3ncncc23)[nH]c2ccc(C3CCNCC3)cc12 [Example 241, 5-(3-ethyl-5-(piperidin-4-yl)-1H-indol-2-yl)-7H-pyrrolo[2,3-d]pyrimidine]
< 100	< 100	< 100	CC(C)c1c(-c2ccnc3[nH]ncc23)[nH]c2cc(F)c(C3CCN(C4CCN(C(C)C)CC4)CC3)cc12 [Example 830, 4-(6-fluoro-3-isopropyl-5-(1′-isopropyl-[1,4′-bipiperidin]-4-yl)-1H-indol-2-yl)-1H-pyrazolo[3,4-b]pyridine]
< 100	< 100	1000 to 50000	CC(C)c1c(-c2cccn3ncnc23)[nH]c2ccc(C3CCNCC3)cc12 [Example 196, 8-(3-isopropyl-5-(piperidin-4-yl)-1H-indol-2-yl)-[1,2,4]triazolo[1,5-a]pyridine]
< 100	< 100	100 to 1000	CCc1c(-c2ccnc3[nH]ncc23)[nH]c2ccc(C3CCNCC3)cc12 [Example 229, 4-(3-ethyl-5-(piperidin-4-yl)-1H-indol-2-yl)-1H-pyrazolo[3,4-b]pyridine]
